Measured values: PubChem BioAssay (NCI)
“And” between values parts separate entries of the source, which are not always exact repeats. Identical values can stand only once.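 These data come from cells grown in 96-well plates and exposed to compound for 48 hours at five concentrations. The concentration for 50% growth inhibition is given as GI50. The concentration for full growth arrest is given as TGI.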

Columns and labels:
Assay in all cases: NCI-60 cell line screen, 48 h
CCRF-CEM leukemia = system: CCRF-CEM leukemia
HCT-116 colon = system: HCT-116 colon
IGROV1 ovarian = system: IGROV1 ovarian
M14 melanoma = system: M14 melanoma
OVCAR-4 ovarian = system: OVCAR-4 ovarian
OVCAR-5 ovarian = system: OVCAR-5 ovarian
SK-MEL-2 melanoma = system: SK-MEL-2 melanoma
SNB-75 CNS = system: SNB-75 CNS
SW-620 colon = system: SW-620 colon
TK-10 renal = system: TK-10 renal

| Compound | GI50 (CCRF-CEM leukemia) | TGI (CCRF-CEM leukemia) | GI50 (HCT-116 colon) | TGI (HCT-116 colon) | GI50 (IGROV1 ovarian) [µM] | TGI (IGROV1 ovarian) [µM] | GI50 (M14 melanoma) | TGI (M14 melanoma) | GI50 (OVCAR-4 ovarian) [nM] | TGI (OVCAR-4 ovarian) [µM] | GI50 (OVCAR-5 ovarian) [µM] | TGI (OVCAR-5 ovarian) [µM] | GI50 (SK-MEL-2 melanoma) | TGI (SK-MEL-2 melanoma) | GI50 (SNB-75 CNS) | TGI (SNB-75 CNS) [µM] | GI50 (SW-620 colon) | TGI (SW-620 colon) | GI50 (TK-10 renal) [µM] | TGI (TK-10 renal) [µM] |
| --- | --- | --- | --- | --- | --- | --- | --- | --- | --- | --- | --- | --- | --- | --- | --- | --- | --- | --- | --- | --- |
| CCn1c(-c2cc3c([nH]c4ccccc43)c(-c3cccc(O)c3)n2)n[nH]c1=S | 2.93 µM | 12.4 µM | 3.88 µM | 15 µM | 4.23 | 35.5 | 2.57 µM | 11.6 µM | 3120 | 13.1 | 6.34 | 32.9 | 2.05 µM | 5.81 µM | 1.26 µM | 4.85 | 4.15 µM | 18.9 µM | 3.64 | 14.8 |
| N#C/C(=C\c1cccc(O)c1O)C(N)=O | – | 45.3 µM | – | > 100 µM | – | > 100 | – | > 100 µM | – | > 100 | – | > 100 | – | > 100 µM | – | 47.2 | – | > 100 µM | – | > 100 |
| COc1ccc(-c2cc(C(=O)Nc3cc(C(F)(F)F)cc(C(F)(F)F)c3)c3ccccc3n2)cc1 | – | > 100 µM | – | 18.6 µM | – | 44.9 | – | 25 µM | – | > 100 | – | > 100 | – | 30.6 µM | – | 29.6 | – | 21 µM | – | 29.5 |
| [O-]c1ccccc1C=Nc1ccc2c(c1)CCC2.[O-]c1ccccc1C=Nc1ccc2c(c1)CCC2.[O]=[U+2]=[O] | 8.39 µM | > 100 µM | 13.5 µM | > 100 µM | 41 | > 100 | > 100 µM | > 100 µM | > 100000 | > 100 | > 100 | > 100 | > 100 µM | > 100 µM | 82.7 µM | > 100 | > 100 µM | > 100 µM | 30.1 | 82.2 |
| CN(C)/C=N\c1ccnc(=O)[nH]1 | – | > 100 µM | – | > 100 µM | – | > 100 | – | > 100 µM | – | > 100 | – | > 100 | – | > 100 µM | – | > 100 | – | > 100 µM | – | > 100 |
| Cc1cc(C)c2c(n1)sc1c(N)ncnc12 | > 25 µM | > 25 µM | 24.4 µM | > 25 µM | 19.7 | > 25 | > 25 µM | > 25 µM | > 25000 | > 25 | > 25 | > 25 | > 25 µM | > 25 µM | > 20.8 µM | > 25 | > 25 µM | > 25 µM | 10.1 | > 25 |
| Cc1ccc2nc(-c3ccc(OCC(=O)N=Nc4c(O)[nH]c5ccccc45)cc3)[nH]c2c1 | 1.93 µM | 11.3 µM | 2.26 µM | 5.35 µM | 3.61 | 16.1 | 5.43 µM | > 100 µM | 1950 | 4.09 | 19.1 | > 100 | 3.71 µM | 14.7 µM | 13 µM | 38.5 | 2.02 µM | 4.32 µM | 12.8 | 30.8 |
| O=[N+]([O-])c1nccn1CC(O)CN1CCCCC1 (stereo unspecified) | – | > 100 µM | – | > 100 µM | – | > 100 | – | > 100 µM | – | > 100 | – | > 100 | – | > 100 µM | – | > 100 | – | > 100 µM | – | > 100 |
| Cc1ccc(S(=O)(=O)N=NC=C2c3ccccc3N(O)c3ccccc32)cc1 | – | 2.93 µM | – | 1.94 µM | – | 27.1 | – | 23.2 µM | – | 22.8 | – | 27.8 | – | 17.8 µM | – | 10.4 | – | 14.7 µM | – | 16.5 |
| O=C(C#Cc1ccccc1)N1c2ccccc2CC1c1c[nH]c2ccccc12 (stereo unspecified) | – | 32 µM | – | 26.5 µM | – | 25.3 | – | 28.8 µM | – | 69.6 | – | 64.4 | – | 26.6 µM | – | 37.6 | – | 30.3 µM | – | 44.2 |
| Cc1c2c(cc3c1C(=O)C(=O)C1=C3OC[C@@H]1C)C(C)(C)CCC2 | – | 42 µM | – | 26.7 µM | – | 49.8 | – | 26.9 µM | – | 51.8 | – | 40.2 | – | 21.2 µM | – | 41.9 | – | 28.4 µM | – | 56.7 |
| Cc1nc2ccc(Br)cc2c(=O)n1-c1ccc(NC2OCC(O)C(O)C2O)cc1 (stereo unspecified) | 3.8 µM and 34.9 µM | 38 µM and > 100 µM | 17.7 µM and 79.2 µM | 53.7 µM and > 100 µM | – | > 100 | 17.9 µM and > 100 µM | 35.6 µM and > 100 µM | – | > 100 | – | > 100 | 25.6 µM and > 100 µM | 66.3 µM and > 100 µM | 38.7 µM and 92.3 µM | > 100 | 17.8 µM and > 100 µM | 47 µM and > 100 µM | – | > 100 |
| Cc1cc(Nc2nc(C(=O)Nc3ccccc3)nc3ccccc23)n[nH]1 | 4 µM | > 25 µM | 4.7 µM | > 25 µM | 4.48 | > 25 | 3.48 µM | > 25 µM | 7870 | > 25 | > 25 | > 25 | 3.57 µM | > 25 µM | 6.8 µM | > 25 | 9.7 µM | > 25 µM | 2.52 | > 25 |
| CC1CN(S(=O)(=O)c2oc(-c3ccc(Cl)cc3)nc2C#N)CC(C)O1 (stereo unspecified) | 0.505 µM | 4.24 µM | 1.59 µM | 3.13 µM | 1.87 | 3.69 | 1.62 µM | 3.39 µM | 2020 | 4.65 | 2.07 | 4.44 | 4.1 µM | 14.6 µM | 10.6 µM | 22.7 | 1.36 µM | 3.09 µM | 1.75 | 3.26 |
| CCCCCCCCOC(=O)c1c(C)[nH]c(/C=C2\N=C(c3ccc[nH]3)C=C2OC)c1C | < 0.0178 µM | > 27.4 µM | < 0.0177 µM | 1.25 µM | 0.0414 | 6.81 | 0.0351 µM | 2.01 µM | 34 | 16.8 | 0.0943 | 3.45 | 0.0279 µM | 0.0952 µM | 0.0451 µM | 0.432 | < 0.0181 µM | 1.56 µM | 0.0484 | 7.29 |
| NNc1cnn(-c2ccccc2)c(=O)c1Cl | – | > 100 µM | – | > 100 µM | – | > 100 | – | > 100 µM | – | > 100 | – | > 100 | – | > 100 µM | – | > 100 | – | > 100 µM | – | > 100 |
